The values below come from publication PMC8325347, “Evolution of a σ–(c-di-GMP)–anti-σ switch” (Proceedings of the National Academy of Sciences of the …, 2021).

One experiment deals with T1, RsiGCw (Conexibacter woesei, UniProt D3EZE5).
T1 construct: gene Cwoe_3492; full-length single-motif RsiG; pET15b, E. coli C41(DE3), His-tag cut with thrombin; homodimer (two-hybrid)
T1 sequence (D3EZE5 1-84): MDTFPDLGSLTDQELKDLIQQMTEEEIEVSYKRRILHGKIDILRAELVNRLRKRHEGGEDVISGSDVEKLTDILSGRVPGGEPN
Put plainly: fluorescence polarization. In kind it is binding. To be noted: 25 mM Tris-HCl pH 7.5, 150 mM NaCl, 25 °C, 1 nM probe; RsiG alone; labelled compound. (In fluorescence polarisation assays a small probe gives low polarisation when free and higher when bound to something large.)

For another experiment, the target named is T2, RsiGCw+WhiGCw (Conexibacter woesei, UniProt D3EZE5).
T2 construct: gene Cwoe_3492; RsiG and WhiG coexpressed from pCOLADuet-1 in E. coli C41(DE3), His-tag on RsiG cut with thrombin; stoichiometry by analogy with the R. radiotolerans complex
T2 sequence (D3EZE5 1-84): T1 sequence (D3EZE5 1-84)
T2 sequence (UPI0011D1D740 1-268 partner): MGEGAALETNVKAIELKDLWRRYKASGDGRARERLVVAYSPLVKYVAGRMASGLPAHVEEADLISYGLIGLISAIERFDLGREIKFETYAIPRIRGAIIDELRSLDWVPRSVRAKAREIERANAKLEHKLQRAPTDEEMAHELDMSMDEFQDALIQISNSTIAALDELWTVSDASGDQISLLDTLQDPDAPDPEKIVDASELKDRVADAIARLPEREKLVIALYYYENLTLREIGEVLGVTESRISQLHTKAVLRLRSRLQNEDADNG
Kind of experiment: fluorescence polarization. In kind it is binding. To be noted: 25 mM Tris-HCl pH 7.5, 150 mM NaCl, 25 °C, 1 nM probe; RsiG with WhiG; labelled compound.

In experiment [1] the target is T3, RsiGRr+WhiGRr; Rr (RsiG)2–(c-di-GMP)2–WhiG complex (Rubrobacter radiotolerans, UniProt A0A023X3C8+Z9BF25KB68).
T3 construct: RsiG and WhiG coexpressed from pCOLADuet-1 in E. coli C41(DE3), His-tag on RsiG cut with thrombin; complex of RsiG homodimer and one WhiG
T3 sequence (Z9BF25KB68 1-118): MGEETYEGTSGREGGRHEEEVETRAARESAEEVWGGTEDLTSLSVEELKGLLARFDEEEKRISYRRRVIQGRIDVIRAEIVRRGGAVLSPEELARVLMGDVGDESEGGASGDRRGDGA
T3 sequence (A0A023X3C8 1-273): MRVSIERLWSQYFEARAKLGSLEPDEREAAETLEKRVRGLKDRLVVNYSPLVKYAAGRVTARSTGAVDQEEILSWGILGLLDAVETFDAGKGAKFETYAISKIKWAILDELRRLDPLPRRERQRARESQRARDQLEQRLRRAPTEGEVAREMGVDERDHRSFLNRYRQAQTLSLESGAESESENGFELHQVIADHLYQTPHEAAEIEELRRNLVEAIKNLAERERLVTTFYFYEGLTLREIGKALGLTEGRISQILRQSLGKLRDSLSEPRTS
Kind of experiment: fluorescence polarization. It counts as binding. The settings on record: 25 mM Tris-HCl pH 7.5, 150 mM NaCl, 25 °C, 1 nM probe; RsiG with WhiG; labelled compound.

The target in a further experiment is T4, RsiGRr (Rubrobacter radiotolerans, UniProt Z9BF25KB68).
T4 construct: full-length single-motif RsiG, 118 residues (a 27-106 construct was made for apo crystals only); pET15b, E. coli C41(DE3), His-tag cut with thrombin; homodimer
T4 sequence (Z9BF25KB68 1-118): T3 sequence (Z9BF25KB68 1-118)
Kind of experiment: fluorescence polarization. In kind it is binding. To be noted: 25 mM Tris-HCl pH 7.5, 150 mM NaCl, 25 °C, 1 nM probe; RsiG alone; labelled compound.

Experiment [2] addresses RsiG from Rubrobacter radiotolerans (RsiGRr), co-purified with WhiGRr, His-tag cleaved (Rubrobacter radiotolerans). Put plainly: crystal structure; Rr (RsiG)2-(c-di-GMP)2-WhiG complex, 2.93 Å; 0.1 M Tris pH 8.0, 0.2 M MgCl2, 23% PEG 3350; c-di-GMP copurified from E. coli, none added.
Experiment [3] concerns the target RsiGRr(27-106) (L52M-I69M), selenomethionine substituted (Rubrobacter radiotolerans). Put plainly: crystal structure; apo RsiGRr crystal form 1; 0.1 M imidazole pH 8.0, 12% isopropyl alcohol, 0.1 M MgCl2; selenomethionine SAD, 1.86 Å; six molecules in the ASU forming three dimers.
In experiment [4] the target is RsiGRr(27-106) (Rubrobacter radiotolerans). Kind of experiment: crystal structure; apo RsiGRr crystal form 2; 0.1 sodium acetate pH 4.5, 2.5 M NaCl, 0.2 M lithium sulfate, 0.1 M MgCl2; molecular replacement, 2.55 Å.

Usually Kd stands for the free concentration of one partner at which half of the binding sites on the other are occupied at equilibrium, for simple one-to-one binding. Read a low Kd as tighter binding. For the substance “2′-O-(6-[Fluoresceinyl]aminohexylcarbamoyl)-cyclic diguanosine monophosphate [2′-Fluo-AHC–c-di-GMP]”, the Kd is 25 ± 2 µM on RsiGCw, 1.7 ± 0.3 µM on RsiGCw+WhiGCw, 0.9 ± 0.05 µM in experiment [1] and 12 ± 3 µM on RsiGRr.
For orientation: stoichiometry N means the number of molecules, sites or subunits per partner or assembly. “RsiG from Rubrobacter radiotolerans (RsiGRr), co-purified with WhiGRr, His-tag cleaved (natural protein)”: the stoichiometry N in experiment [2] is 2.
In turn, “RsiGRr(27-106) (L52M-I69M), selenomethionine substituted (domain or fragment)” gave a stoichiometry N in experiment [3] of 2.
Regarding RsiGRr(27-106) (domain or fragment), the stoichiometry N in experiment [4] is 2.
